# Laboratory results published in US20050282159A1, “Rpob gene of streptomyces, primer specific to streptomyces, and identification method of streptomyces having rifampin resistance or sensitivity by using the same” (priority 2001, published 2005).
# Legend:
# [1] = test system: S. californicus KCCM 40605; settings: TCG (TCC) genotype
# Procedure: (§1) The primer sets of SEQ ID NOs: 1 and 2 were used to amplify rpoB genes of 60 strains, and nucleotides of the […] products were analyzed with an automatic sequencer. SRPOF1 as a forward primer and SRPOR1 as a backward primer were used.
# [2] = test system: S. antibioticus KCTC 1137; settings: TCG (TCC) genotype
# Procedure: as §1
# [3] = test system: S. hachijoense KCCM 32306; settings: TCG (TCC) genotype
# Procedure: as §1
# S. tendae KCCM 40105 = settings: AAC genotype
# Procedure: as §1
# S. cellulose KCTC 9703 = settings: AAC genotype
# Procedure: as §1
# [4] = test system: S. coeruleofuscus KCCM 40506; settings: TCG (TCC) genotype
# Procedure: as §1
# [5] = test system: S. violaceoruber KCTC 9787; settings: AAC genotype
# Procedure: as §1
# [6] = test system: S. griseostramineus KCCM 40526; settings: TCG (TCC) genotype
# Procedure: as §1
# S. gougeroti KCCM 40681 = settings: TCG (TCC) genotype
# Procedure: as §1
# S. erumpens KCTC 9729 = settings: TCG (TCC) genotype
# Procedure: as §1
# S. baldacii KCCM 41326 = settings: TCG (TCC) genotype
# Procedure: as §1
# S. fimbriatus KCCM 11888 = settings: TCG (TCC) genotype
# Procedure: as §1
# [7] = test system: S. yokosukanens KCCM 40633; settings: AAC genotype
# Procedure: as §1
# S. fulvissimus KCTC 9773 = settings: TCG (TCC) genotype
# Procedure: as §1
# S. humiferus KCTC 9116 = settings: AAC genotype
# Procedure: as §1
# S. umbrinus KCCM 40316 = settings: AAC genotype
# Procedure: as §1
# [8] = test system: S. amakusaensis KCTC 9753; settings: TCG (TCC) genotype
# Procedure: as §1
# [9] = test system: S. cinnamoneus KCCM 40572; settings: TCG (TCC) genotype
# Procedure: as §1
# S. kifunensis KCTC 9734 = settings: TCG (TCC) genotype
# Procedure: as §1
# [10] = test system: S. flavovirens KCCM 40165; settings: TCG (TCC) genotype
# Procedure: as §1
# S. erythraeus KCCM 40477 = settings: TCG (TCC) genotype
# Procedure: as §1
# S. althioticus KCTC 9752 = settings: AAC genotype
# Procedure: as §1
# S. carpinensis KCTC 9128 = settings: TCG (TCC) genotype
# Procedure: as §1
# S. candidus KCTC 9020 = settings: TCG (TCC) genotype
# Procedure: as §1
# [11] = test system: S. ambofaciens KCCM 40182; settings: AAC genotype
# Procedure: as §1
# [12] = test system: S. chromogenes KCCM 40727; settings: TCG (TCC) genotype
# Procedure: as §1
# S. piosus KCCM 40480 = settings: AAC genotype
# Procedure: as §1
# [13] = test system: S. griseoflavus KCCM 12624; settings: AAC genotype
# Procedure: as §1
# [14] = test system: S. xanthocidicus KCCM 40286; settings: AAC genotype
# Procedure: as §1
# S. lividans KCTC 1154 = settings: AAC genotype
# Procedure: as §1
# [15] = test system: S. cyaneofuscatus KCCM 40517; settings: TCG (TCC) genotype
# Procedure: as §1
# [16] = test system: S. albovinaceous KCCM 40177; settings: TCG (TCC) genotype
# Procedure: as §1
# [17] = test system: S. griseoruber KCCM 40658; settings: TCG (TCC) genotype
# Procedure: as §1
# [18] = test system: S. griseolosporeus KCTC 9791; settings: TCG (TCC) genotype
# Procedure: as §1
# S. coelescens KCCM 40742 = settings: AAC genotype
# Procedure: as §1
# S. albospinus KCTC 9762 = settings: TCG (TCC) genotype
# Procedure: as §1
# S. eurythermus KCTC 9731 = settings: TCG (TCC) genotype
# Procedure: as §1
# [19] = test system: S. indigoferus KCCM 40495; settings: TCG (TCC) genotype
# Procedure: as §1
# S. rubiginosus KCTC 9042 = settings: AAC genotype
# Procedure: as §1
# S. azureus KCCM 40485 = settings: TCG (TCC) genotype
# Procedure: as §1
# [20] = test system: S. aureufaciens KCCM 40127; settings: TCG (TCC) genotype
# Procedure: as §1
# S. halstedii KCCM 40613 = settings: TCG (TCC) genotype
# Procedure: as §1
# [21] = test system: S. disatochromogenes KCCM 40449; settings: TCG (TCC) genotype
# Procedure: as §1
# S. kurssanovi KCCM 40527 = settings: TCG (TCC) genotype
# Procedure: as §1
# [22] = test system: S. coerulescens KCCM 40508; settings: TCG (TCC) genotype
# Procedure: as §1
# 60 strains = experiment: rifampin genotype by rpoB nucleotide sequence analysis (summary); parameters: species or system Streptomyces; settings: the other 41 strains with TCG or TCC at the 352nd position
# Procedure: as §1
compound,measurement,setting,value
CO[C@H]1/C=C/O[C@@]2(C)Oc3c(C)c(O)c4c(O)c(c(/C=N/N5CCN(C)CC5)c(O)c4c3C2=O)NC(=O)/C(C)=C\C=C\[C@H](C)[C@H](O)[C@@H](C)[C@@H](O)[C@@H](C)[C@H](OC(C)=O)[C@@H]1C [rifampin],genotype (rifampin-resistant or -sensitive strain),[1],−
same,genotype (rifampin-resistant or -sensitive strain),[2],−
same,genotype (rifampin-resistant or -sensitive strain),[3],−
same,genotype (rifampin-resistant or -sensitive strain),S. tendae KCCM 40105,+
same,genotype (rifampin-resistant or -sensitive strain),S. cellulose KCTC 9703,+
same,genotype (rifampin-resistant or -sensitive strain),[4],−
same,genotype (rifampin-resistant or -sensitive strain),[5],+
same,genotype (rifampin-resistant or -sensitive strain),[6],−
same,genotype (rifampin-resistant or -sensitive strain),S. gougeroti KCCM 40681,−
same,genotype (rifampin-resistant or -sensitive strain),S. erumpens KCTC 9729,−
same,genotype (rifampin-resistant or -sensitive strain),S. baldacii KCCM 41326,−
same,genotype (rifampin-resistant or -sensitive strain),S. fimbriatus KCCM 11888,−
same,genotype (rifampin-resistant or -sensitive strain),[7],+
same,genotype (rifampin-resistant or -sensitive strain),S. fulvissimus KCTC 9773,−
same,genotype (rifampin-resistant or -sensitive strain),S. humiferus KCTC 9116,+
same,genotype (rifampin-resistant or -sensitive strain),S. umbrinus KCCM 40316,+
same,genotype (rifampin-resistant or -sensitive strain),[8],−
same,genotype (rifampin-resistant or -sensitive strain),[9],−
same,genotype (rifampin-resistant or -sensitive strain),S. kifunensis KCTC 9734,−
same,genotype (rifampin-resistant or -sensitive strain),[10],−
same,genotype (rifampin-resistant or -sensitive strain),S. erythraeus KCCM 40477,−
same,genotype (rifampin-resistant or -sensitive strain),S. althioticus KCTC 9752,+
same,genotype (rifampin-resistant or -sensitive strain),S. carpinensis KCTC 9128,−
same,genotype (rifampin-resistant or -sensitive strain),S. candidus KCTC 9020,−
same,genotype (rifampin-resistant or -sensitive strain),[11],+
same,genotype (rifampin-resistant or -sensitive strain),[12],−
same,genotype (rifampin-resistant or -sensitive strain),S. piosus KCCM 40480,+
same,genotype (rifampin-resistant or -sensitive strain),[13],+
same,genotype (rifampin-resistant or -sensitive strain),[14],+
same,genotype (rifampin-resistant or -sensitive strain),S. lividans KCTC 1154,+
same,genotype (rifampin-resistant or -sensitive strain),[15],−
same,genotype (rifampin-resistant or -sensitive strain),[16],−
same,genotype (rifampin-resistant or -sensitive strain),[17],−
same,genotype (rifampin-resistant or -sensitive strain),[18],−
same,genotype (rifampin-resistant or -sensitive strain),S. coelescens KCCM 40742,+
same,genotype (rifampin-resistant or -sensitive strain),S. albospinus KCTC 9762,−
same,genotype (rifampin-resistant or -sensitive strain),S. eurythermus KCTC 9731,−
same,genotype (rifampin-resistant or -sensitive strain),[19],−
same,genotype (rifampin-resistant or -sensitive strain),S. rubiginosus KCTC 9042,+
same,genotype (rifampin-resistant or -sensitive strain),S. azureus KCCM 40485,−
same,genotype (rifampin-resistant or -sensitive strain),[20],−
same,genotype (rifampin-resistant or -sensitive strain),S. halstedii KCCM 40613,−
same,genotype (rifampin-resistant or -sensitive strain),[21],−
same,genotype (rifampin-resistant or -sensitive strain),S. kurssanovi KCCM 40527,−
same,genotype (rifampin-resistant or -sensitive strain),[22],−
same,rifampin genotype of the strains,60 strains,rifampin-sensitive genotypes
